Test results taken from ChEMBL document CHEMBL3137667, “[Drug-induced liver injury; fourteenth updated edition of the bibliographic database of liver injuries and related drugs]” (Gastroenterol Clin Biol, 2004).

Assays:
[1] = human, serum, 4383 h
[2] = human, serum
[3] = human
[4] = Times to onset, minimal and maximal, observed in the indexed observations. [column 'DELAI' in source]; details: human
[5] = human; remark: listed apart in the source
[6] = human; remark: listed apart in the source
[7] = Highest frequency of moderate liver toxicity observed during clinical trials, expressed as a percentage. [column '% BIOL' in source]; details: human
[8] = human; remark: listed apart in the source
[9] = human, serum; remark: listed apart in the source
[10] = human; remark: listed apart in the source
[11] = human; remark: listed apart in the source
[12] = human; remark: listed apart in the source
[13] = Highest frequency of acute liver toxicity observed during clinical trials, expressed as a percentage. [column '% AIGUE' in source]; details: human
[14] = human; remark: listed apart in the source
[15] = human; remark: listed apart in the source
[16] = human; remark: listed apart in the source
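Wherever Hepatotoxicity (association with vascular disease) is given: count of indexed literature references reporting vascular liver injury in humans, e.g. peliosis hepatitis, hepatic veno-occlusive disease or Budd-Chiari syndrome.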
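Wherever Hepatotoxicity (benign tumour) is given: value is a count of indexed literature references citing a benign tumour confirmed by histopathology.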
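Wherever Hepatotoxicity (choleostasis) is given: human cholestatic liver injury, shown by histopathology or by peak ALT or AST elevation over alkaline phosphatase ratio below 2, value counts indexed literature reports.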
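Wherever Hepatotoxicity (chronic liver disease) is given: chronic liver injury confirmed by histopathology or persistently raised serum aminotransferase activity beyond 6 months, value given as the count of indexed literature references.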
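Wherever Hepatotoxicity (cirrhosis) is given: value is a count of indexed literature references reporting cirrhosis confirmed by histopathology.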
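Wherever Hepatotoxicity (cytolytic) is given: human cytolytic liver injury, shown by histopathology or by a ratio above 5 of peak ALT or AST elevation to alkaline phosphatase elevation, value counts indexed references.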
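Wherever Hepatotoxicity (granulomatous hepatitis) is given: value is a count of indexed literature references reporting granulomatous liver disease confirmed by histopathology.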
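Wherever Hepatotoxicity (malignant tumour) is given: malignant tumour confirmed by histopathology, value gives the count of indexed literature references reporting it.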
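Wherever Hepatotoxicity (severe hepatitis) is given: human clinical data: severe hepatitis, meaning potentially life-threatening liver failure or clinically observed cases, the value counts how many indexed literature references report it.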
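Wherever Hepatotoxicity (steatosis) is given: steatosis confirmed by histopathology, value is the count of indexed references.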

Compound	Hepatotoxicity (chronic liver disease) [1]	Hepatotoxicity (acute) [2]	Hepatotoxicity (severe hepatitis) [3]	Hepatotoxicity (time to onset) [4]	Hepatotoxicity (association with vascular disease) [5]	Hepatotoxicity (animal toxicity known) [6]	Hepatotoxicity (moderate) [7]	Hepatotoxicity (cirrhosis) [8]	Hepatotoxicity (moderate) [9]	Hepatotoxicity (malignant tumour) [10]	Hepatotoxicity (steatosis) [11]	Hepatotoxicity (granulomatous hepatitis) [12]	Hepatotoxicity (acute) [13]	Hepatotoxicity (benign tumour) [14]	Hepatotoxicity (cytolytic) [15]	Hepatotoxicity (choleostasis) [16]	other results
O=c1[nH]c(=O)n([C@@H]2O[C@H](CO)[C@@H](O)[C@@H]2F)cc1I [FIALURIDINE]	0	1	3	9.5 weeks - 4 months	0	yes	0%	0	0	0	1	0	33.3%	0	0	0	–
CN(C)[C@@H]1C(O)=C(C(=O)NCN2CCCC2)C(=O)[C@@]2(O)C(O)=C3C(=O)c4c(O)cccc4[C@@](C)(O)[C@H]3C[C@@H]12 [ROLITETRACYCLINE]	0	1	1	2 days	0	yes	0%	0	0	0	0	0	0%	0	1	0	–
CCCC1C(=O)N2C(N(C)C)=Nc3ccc(C)cc3N2C1=O (stereo not given) [APAZONE]	0	–	0	3 weeks	0	yes	0%	0	1	0	0	1	–	0	0	1	–
COc1ccc2c(C(=S)N(C)CC(=O)O)cccc2c1C(F)(F)F [TOLRESTAT]	0	2	1	7 weeks - 6 months	0	yes	15.4%	0	7	0	0	0	0.2%	0	2	0	–
OCC(Br)(Br)Br [TRIBROMOETHANOL]	0	9	15	1 day - 4 days	0	yes	0%	0	1	0	9	0	0.1%	0	8	0	–
CNCCC=C1c2ccccc2CCc2ccccc21 [NORTRIPTYLINE]	0	2	–	2 months - 3 months	0	yes	–	0	1	0	0	–	–	0	–	–	Hepatotoxicity (severe hepatitis) ([3]; Liver): 2; Hepatotoxicity (moderate) ([7]; Liver): 0%; Hepatotoxicity (granulomatous hepatitis) ([12]; Liver): 0; Hepatotoxicity (acute) ([13]; Liver): 0%; Hepatotoxicity (cytolytic) ([15]; Liver): 2; Hepatotoxicity (choleostasis) ([16]; Liver): 0
Cl[C@H]1[C@H](Cl)[C@@H](Cl)[C@@H](Cl)[C@H](Cl)[C@H]1Cl [LINDANE]	0	2	–	3 weeks	0	yes	–	0	0	0	0	–	–	0	–	–	Hepatotoxicity (severe hepatitis) ([3]; Liver): 0; Hepatotoxicity (moderate) ([7]; Liver): 0%; Hepatotoxicity (granulomatous hepatitis) ([12]; Liver): 0; Hepatotoxicity (acute) ([13]; Liver): 0%; Hepatotoxicity (cytolytic) ([15]; Liver): 1; Hepatotoxicity (choleostasis) ([16]; Liver): 0
Cc1cn([C@H]2CC[C@@H](CO)O2)c(=O)[nH]c1=O	0	0	0	–	0	yes	30%	0	1	0	0	0	0%	0	0	0	–
CC[C@]1(O)C[C@@H]2CN(CCc3c([nH]c4ccccc34)[C@@](C(=O)OC)(c3cc4c(cc3OC)N(C)[C@H]3[C@@](O)(C(N)=O)[C@H](O)[C@]5(CC)C=CCN6CC[C@]43[C@@H]65)C2)C1 [VINDESINE]	0	0	0	–	0	yes	9.1%	0	2	0	0	0	0%	0	0	0	–
N#CN [CYANAMIDE]	11	2	0	–	0	yes	0%	2	0	0	0	0	0%	0	0	2	–
NC[C@@H]1CC[C@@H](N)[C@@H](O[C@H]2[C@H](O)[C@@H](O[C@H]3O[C@H](CO)[C@@H](O)[C@H](N)[C@H]3O)[C@H](N)C[C@@H]2N)O1 [DIBEKACIN]	0	0	0	–	0	yes	13.7%	0	1	0	0	0	0%	0	0	0	–
O=C(OC[C@H]1O[C@@H](OC(=O)c2cc(O)c(O)c(OC(=O)c3cc(O)c(O)c(O)c3)c2)[C@H](OC(=O)c2cc(O)c(O)c(OC(=O)c3cc(O)c(O)c(O)c3)c2)[C@@H](OC(=O)c2cc(O)c(O)c(OC(=O)c3cc(O)c(O)c(O)c3)c2)[C@@H]1OC(=O)c1cc(O)c(O)c(OC(=O)c2cc(O)c(O)c(O)c2)c1)c1cc(O)c(O)c(OC(=O)c2cc(O)c(O)c(O)c2)c1 [TANNIC ACID]	0	13	8	–	0	yes	0%	0	0	0	0	0	0%	0	13	0	–
O=C1Nc2ccc(Cl)cc2C(c2ccccc2)=NC1O (stereo not given) [OXAZEPAM]	0	0	–	–	1	yes	–	0	0	0	0	–	–	0	–	–	Hepatotoxicity (severe hepatitis) ([3]; Liver): 0; Hepatotoxicity (moderate) ([7]; Liver): 0%; Hepatotoxicity (granulomatous hepatitis) ([12]; Liver): 0; Hepatotoxicity (acute) ([13]; Liver): 0%; Hepatotoxicity (cytolytic) ([15]; Liver): 0; Hepatotoxicity (choleostasis) ([16]; Liver): 0
